In US10668109B2, “Conditioning protocols and use of same for tissue regeneration” (Yeda Research and Development Co. Ltd., priority 2015, dated 2020):

Assays:
pulmonary Clara cells = test: Naphthalene lung injury model, ablation of Clara cells; format: in vivo, mouse; conditions: naphthalene alone, C57BL mice
Description: For lung injury studies, mice were given an intraperitoneal injection of naphthalene (NA) (more than 99% pure; Sigma-Aldrich), dissolved in corn oil, 200 mg per kg body weight, 40-48 hours before transplantation of embryonic lung tissue. To that end, these cells were initially evaluated in a model based on injury induction with naphthalene, as previously described [[…] et al, American Journal of Physiology-Lung Cellular and Molecular Physiology. (1995) 269(6):791]. This lung injury model mimics lung diseases caused by mild epithelial injury, detectable by changes in the expression of pulmonary Clara cells. The particular anatomical localization of Clara cells in respiratory bronchioles and in broncho-alveolar junctions enabled to accurately localize the site of injury after naphthalene exposure, and to test the ability of a single cell suspension of embryonic “window” cells to colonize and restore the injured epithelial layer in syngeneic recipients.

[1] = test system: endogenous lung progenitors; test: BrdU incorporation assay (lung cell proliferation in vivo); set-up: species or system mouse
Description: Lung cell proliferation was measured in vivo by BrdU uptake. Briefly, control and four groups of experimental mice (7 days following naphthalene administration and 5 days after TBI) received a single dose of BrdU (Sigma) intraperitoneally 120 minutes before sacrifice (at a dose of 50 mg per kg of body weight). Lungs were excised, left lungs were enzymatically digested (using the same protocol as for embryonic tissue dissociation) for polychromatic FACS analysis, and right lungs were fixed with 4% PFA and processed for further immunofluorescence staining. Multiple serial slices were costained with anti-BrdU-FITC and anti-CCSP or anti-SPC antibodies. All FACS and immunohistochemical studies were done using the BrdU flow kit (BD Biosciences), according to the manufacturer's instructions. For morphometric analysis of CCSP^+BrdU^+ and SPC^+BrdU^+ cells, images were stained with anti-CCSP and anti-BrdU or anti-SPC and anti-BrdU antibodies and nuclei counterstained with Hoechst dye. The images were acquired by an observer blinded to the treatment groups, using an Olympus fluorescent microscope and Olympus digital camera (DP70) with a ×40 objective. At least 20 different stained random fields were counted for each marker.

[2] = test system: C57BL/6 mice, recipient lungs; test: Assessment of GFP+ foci in chimeric lungs by morphometry after different conditioning regimens; format: in vivo, mouse; conditions: for engraftment / lung chimerism of donor-derived cells: conditioning with NA alone, 1×10^6 E16 lung cells 2 days after NA; for donor-derived foci: E16 lung cells
Description: For lung injury studies, mice were given an intraperitoneal injection of naphthalene (NA) (more than 99% pure; Sigma-Aldrich), dissolved in corn oil, 200 mg per kg body weight, 40-48 hours before transplantation of embryonic lung tissue. For ‘double’ lung injury, naphthalene-treated animals were further irradiated in a cesium irradiator (Gammacell 40), (40-48 hours after naphthalene administration). C57BL/6, tdTomato (Gt(ROSA)26Sortm4(ACTB-tdTomato,-EGFP)Luo/J mice, and Rag1^−/− mice were irradiated with 6 Gy TBI, and NOD-SCID mice were irradiated 3-4 Gy TBI. Following conditioning with NA, TBI, or both, C57BL/6 mice were transplanted with 1×10^6 GFP-positive E15-E16 embryonic lung cells injected into the tail vein 4-8 hours following irradiation. Lungs were fixed with a 4% PFA solution introduced through the trachea under a constant pressure of 20 cm H2O. Then the lungs were immersed in fixative overnight at 4° C. Lungs were processed after PFA treatment and fixed in 30% sucrose and frozen in Optimal Cutting Temperature (OCT) compound (Sakura Finetek USA, Inc. Tissue-Tek). Serial step sections, 12 μm in thickness, were taken along the longitudinal axis of the lobe. The fixed distance between the sections was calculated so as to allow systematic sampling of at least 20 sections across the whole lung. Lung slices were analyzed by fluorescence microscopy. The actual number of GFP^+ foci (a group of more than 5 distinct GFP^+ cells was defined as a single patch) was counted per slice using Image Pro software. The area of each slice was estimated by Image Pro software, and the average area of slices and average frequency of GFP^+ patches in all the slices were assessed (patch(P)/Area(A) (mm2)), assuming that the frequency per area in a large number of slices reflects distribution per volume.

## c1ccc2ccccc2c1 [naphthalene]
Pulmonary Clara cells
  ablation of Clara cells: transient
[1]; 6 Gy TBI 48 hrs after NA treatment
  endogenous cell recovery: inhibited
[1]; 6 Gy TBI administered 48 hrs after NA
  level of BrdU+ cells within endothelial, epithelial and mesenchymal lineages (FACS): significantly reduced
[1]; 6 Gy TBI prior to NA treatment
  ablation of endogenous pool of progenitors: did not effectively ablate the endogenous pool of progenitors
[1]; NA alone, no transplantation
  endogenous BrdU+ proliferating cells: marked signal of endogenous BrdU^+ proliferating cells
[2]; NA and 6 Gy TBI vs TBI alone or NA alone, 30 days post transplant
  GFP positive patches (engraftment of donor-derived cells): markedly enhanced
[2]
  engraftment / lung chimerism of donor-derived cells: could not enable significant engraftment
[2]; listed as NA
  engraftment / lung chimerism of donor-derived cells: failed to attain a detectable level of lung chimerism
[2]; conditioning with naphthalene alone, 30 days post transplant
  donor-derived foci: 10-12 foci/mm^3
[2]; conditioning with naphthalene and 6 Gy TBI, 30 days post transplant
  donor-derived foci: 55 foci/mm^3
